Measurements from patent US20250332101A1, “Composition” (priority 2018, published 2025).
“Also recorded” adds a separate entry of the source.

Columns and labels:
[1] = system: RGC in OHT Dark Agouti (DA) rats; format: in vivo; conditions: topical eye drops from two days prior to induction, three weeks, versus OHT only
[2] = system: New Zealand albino male rabbits (eye); conditions: known; rabbits and humans; cited from earlier work
[3] = system: HCE-S transwell barrier model; assay: HCE-S transwell barrier: transcytosis of model drugs; format: cell-based, human; conditions: pre-treatment of HCE-S for 2 h with 300 μM
Experimental: HCE-S barrier models for transcytosis assays were prepared using an adaptation of a previously described method (Reichl (2008)). HCE-S cells (5×10^4 cells/well) were seeded on transwell inserts (polycarbonate, 3 μm pore size, 1.13 cm^2) and maintained for 7 days refreshing the medium in the apical and basal chambers every second day. After this time cells were cultured for a further 10 days at an apical air interface to encourage development of a multilayer barrier. Prior to each experiment culture medium was replaced with phenol red free DMEM and barrier integrity measured via transepithelial resistance (TER). […]
FIGS. 21A-21D and FIGS. 22Ai-22Biii. Baseline TER was recorded before addition of […] 3-OH-C12 HSL in micelles (assuming 100% drug loading) or equivalent concentrations of micelles only (vehicle control) dissolved in phenol-red free culture medium for 2 h. After this time, TER was recorded before culture medium was replaced with fresh. To the apical chamber, a model drug molecule (FITC-dextran or Avastin) was added and the concentration of this agent in the basolateral chamber was measured either by monitoring FITC fluorescence (FITC-dextran) versus a standard curve of known concentrations or using a commercially available Avastin sandwich ELISA kit as previously described (Davis et al. (2014)). […]

[4] = compared with 3-oxo-C12 HSL; cited from earlier work
[5] = system: immortalized human corneal epithelial cell line (HCE-S); assay: Cell toxicity test in corneal epithelial cells; format: cell-based; conditions: compared with 3-oxo-C12 HSL and Benzalkonium chloride (BAK)
Experimental: (§1) HCE-S cells (Immortalized Human Corneal Epithelial Cells) were cultured as a monolayer in 90% DMEM supplemented with 10% heat inactivated FBS and penicillin-streptomycin (100 U/mL). Cells were cultured at 37° C. in a humidified incubator with 5% CO2 and growth medium was replaced every three days. HCE-S populations were grown to 80% confluence before passage to 20% using 0.25% Trypsin-EDTA. Prior to each experiment cell populations were estimated using a haemocytometer and trypan blue exclusion assay.

Aqueous solubility = format: physicochemical
HCE-S tight junctions = assay: HCE-S transwell barrier: transepithelial resistance (TER); format: cell-based, human; conditions: 2 h exposure, up to 300 μM 3-OH-C12 HSL
Experimental: as §1
HCE-S barrier models for transcytosis assays were prepared using an adaptation of a previously described method (Reichl (2008)). HCE-S cells (5×10^4 cells/well) were seeded on transwell inserts (polycarbonate, 3 μm pore size, 1.13 cm^2) and maintained for 7 days refreshing the medium in the apical and basal chambers every second day. […] Prior to each experiment culture medium was replaced with phenol red free DMEM and barrier integrity measured via transepithelial resistance (TER). […]
FIGS. 21A-21D and FIGS. 22Ai-22Biii. Baseline TER was recorded before addition of […] 3-OH-C12 HSL in micelles (assuming 100% drug loading) or equivalent concentrations of micelles only (vehicle control) dissolved in phenol-red free culture medium for 2 h. After this time, TER was recorded before culture medium was replaced with fresh. […]

[6] = topical formulation, Sigurdsson et al; cited from earlier work

With COc1cc(/C=C/C(=O)CC(=O)/C=C/c2ccc(O)c(OC)c2)ccc1O [FC] the “RGC density / RGC loss (neuroprotective effect)” value [1] was “did not have this effect; also recorded: no significant protective effect; also recorded: not FC treatment, significantly reduced RGC loss”.

For Benzalkonium chloride [BAK], the ocular irritation [2] is given as “potent ocular irritation”.

In the case of CCCCCCCCCC(O)CC(=O)NC1CCOC1=O (centres unmarked) [3-OH-C12 HSL, 3-hydroxydodecanoyl homoserine lactone], the “transcytosis of 40 kDa FITC Dextran” value [3] is given as “significantly enhanced”, the “transcytosis of 149 kDa Avastin” value [3] is given as “significantly enhanced” and the resistance to hydrolysis [4] is given as “higher resistance to hydrolysis”. For the same molecule, the “cell toxicity (tolerability)” value [5] was “better tolerated”, the water solubility (Aqueous solubility) was “low water solubility” and the “disruption of tight junctions (TER, percentage of control)” value (HCE-S tight junctions) was “reversible disruption of Tight junctions”.

For COc1cc(C=CC(=O)CC(=O)C=Cc2ccc(O)c(OC)c2)ccc1O [curcumin, 1,7-bis-(4-hydroxy-3-methoxyphenyl)-1,6-heptadiene-3,5-dione], the “solubility in distilled water” value (Aqueous solubility; 2 mg/mL curcumin) was “very poorly soluble”.

In the case of C[C@@H]1C[C@H]2[C@@H]3CCC4=CC(=O)C=C[C@]4(C)[C@@]3(F)[C@@H](O)C[C@]2(C)[C@@]1(O)C(=O)CO [dexamethasone], the “entry into the retina by systemic absorption route” value [6] is listed as 40% and the “entry into the retina via topical penetration” value [6] is listed as 60%.
